Data reported in US5182298A, “Cholesterol lowering agents” (Merck & Co., Inc., priority 1991, dated 1993).
In brackets after ≈: the same amount, converted by molar mass. Read-outs that look alike come from different tables or passages of the source.

Columns and labels:
Phoma sp. = assay: FISP disc diffusion assay, zone of inhibition; assay type: cell-based; parameters: key: clear zone throughout, sharp edges; F: clear zone, fuzzy edges; S: slightly hazy zone (some growth observed throughout zone); H: hazy zone (considerable growth observed throughout zone); V: very hazy zone (zone of inhibition is barely discernable); R: zone displays a ring of resistant growth; settings: CH2Cl2, 250 μg/ml
Description: (§1) The FISP assay employs disc diffusion susceptibility testing methods to generate a spectrum of activity against a panel of representative yeasts, filamentous fungi and bacteria.
(§2) The filamentous fungi used in the assay were Penicillium sp. Aspergillus niger, Trichoderma sp., Phoma sp., Trichoderma lignorum, Fusarium oxysporum, Ustilago maydis, Ceratocystis ulmi, Alternaria soloni, Verticillium serrae, Botrytis allii, Scopulariopsis communis, Cephalosporium sp., Cercospora beticola, Rhizomucor miehei, Aspergillus flavus and Aspergillus fumigatus.
(§3) For carrying out the assay, seeded assay plates are prepared in the following manner according to the type of assay strain.
(§4) Inocula for filamentous fungi are prepared by scraping the surface of stock plates maintained on potato dextrose agar with a moistened sterile dacron swab. The spores and mycelia are then suspended in 10 milliliters of sterile potato dextrose broth and adjusted to 65 percent transmission at 660 nm.
(§5) Assay plates for the yeasts and filamentous fungi are prepared by diluting the inoculum into appropriate molten agar medium, cooled to 45° C. to obtain a final concentration of 4 percent.
(§6) The seeded agar media thus prepared are dispensed into petri dishes for assays (11 milliliters per dish).
(§7) The samples to be tested for production of antifungal agent are applied to 6.2 mm. filter paper discs (25 microliter/disc) and air dried at 24° C. When the sample to be tested is crude broth, it may be centrifuged prior to application. The discs bearing the material to be tested are then applied employing sterile conditions to the seeded assay plates. The assay plates are then incubated at either 28° C. or 37° C. for 24 hours. In one of the assays for Bacillus subtilis, the sample is applied to a disc previously impregnated with 4M potassium chloride at 25 μl/disc and then air dried.
(§8) Following incubation, the inhibition zones are measured and recorded. The measurements are made from the extreme edge where growth differs from the background zone. […]

Ceratocystis ulmi = assay: FISP disc diffusion assay, zone of inhibition; assay type: cell-based; parameters: key: clear zone throughout, sharp edges; F: clear zone, fuzzy edges; S: slightly hazy zone (some growth observed throughout zone); H: hazy zone (considerable growth observed throughout zone); V: very hazy zone (zone of inhibition is barely discernable); R: zone displays a ring of resistant growth; settings: CH2Cl2, 250 μg/ml
Description: as §1, §2, §3, §4, §5, §6, §7, §8

Cephalosporium sp. = assay: FISP disc diffusion assay, zone of inhibition; assay type: cell-based; parameters: key: clear zone throughout, sharp edges; F: clear zone, fuzzy edges; S: slightly hazy zone (some growth observed throughout zone); H: hazy zone (considerable growth observed throughout zone); V: very hazy zone (zone of inhibition is barely discernable); R: zone displays a ring of resistant growth; settings: CH2Cl2, 250 μg/ml
Description: as §1, §2, §3, §4, §5, §6, §7, §8

Torulospora hansenii = assay: FISP disc diffusion assay, zone of inhibition; assay type: cell-based; parameters: key: clear zone throughout, sharp edges; F: clear zone, fuzzy edges; S: slightly hazy zone (some growth observed throughout zone); H: hazy zone (considerable growth observed throughout zone); V: very hazy zone (zone of inhibition is barely discernable); R: zone displays a ring of resistant growth; settings: CH2Cl2, 250 μg/ml
Description: as §1
(§9) The yeasts employed in the assay are Saccharomyces cerevisiae, Candida albicans, Candida tropicalis, Candida rugosa, Brettanomyces bruxellensis, Torulospora hansenii, Candida guilliermondi, Candida pseudotropicalis, Torulopsis glabrata, Cryptococcus albidus, Cryptococcus laurentii and Kluyveromyces fragilis.
as §3
(§10) Inocula for yeasts and bacterial strains are prepared from overnight broth cultures then diluted into potato dextrose agar to a final concentration of either 40 percent or 70 percent transmission at 660 nm.
as §5, §6
(§11) The samples to be tested for production of antifungal agent are applied to 6.2 mm. filter paper discs (25 microliter/disc) and air dried at 24° C. […]
(§12) Following incubation, the inhibition zones are measured and recorded. […]

Aspergillus niger = assay: FISP disc diffusion assay, zone of inhibition; assay type: cell-based; settings: 24 h, CH2Cl2, 250 μg/ml, agar diffusion, two lines for this species, read-out: Zone: diameter of the zone of inhibition of growth
Description: as §1, §2, §3, §4, §5
(§13) The seeded agar media thus prepared are dispensed into petri dishes for assays (11 milliliters per dish). […]
as §12

Candida albicans [1] = assay: FISP disc diffusion assay, zone of inhibition; assay type: cell-based; settings: 24 h, CH2Cl2, 250 μg/ml, agar diffusion, five lines without medium suffix, read-out: Zone: diameter of the zone of inhibition of growth
Description: as §1, §9, §3, §10
(§14) For three strains of Candida albicans and one strain of Saccharomyces cerevisiae, sterile saline is employed in place of potato dextrose broth.
as §5, §13, §12

Saccharomyces cerevisiae [2] = assay: FISP disc diffusion assay, zone of inhibition; assay type: cell-based; settings: 24 h, CH2Cl2, 250 μg/ml, agar diffusion, two lines without medium suffix, read-out: Zone: diameter of the zone of inhibition of growth
Description: as §1, §9, §3, §10, §14, §5, §13, §12

Candida guilliermondii [3] = assay: FISP disc diffusion assay, zone of inhibition; assay type: cell-based; settings: Meyerozyma guilliermondii, 24 h; CH2Cl2, 250 μg/ml; agar diffusion; read-out: Zone: diameter of the zone of inhibition of growth
Description: as §1, §9, §3, §10, §5, §6, §11, §12

Torulopsis glabrata = assay: FISP disc diffusion assay, zone of inhibition; assay type: cell-based; settings: Nakaseomyces glabratus, 24 h; CH2Cl2, 250 μg/ml; agar diffusion; read-out: Zone: diameter of the zone of inhibition of growth
Description: as §1, §9, §3, §10, §5, §6, §11, §12

[4] = light stability on isolation and handling; assay type: physicochemical
Candida guilliermondii [5] = assay: Microdilution Broth Assay (MIC/MFC); assay type: cell-based; settings: Meyerozyma guilliermondii, strain MY 1019
Procedure: (§15) The broad spectrum antifungal activity of the present compounds was further determined by broth dilution methods. The compounds are particularly active towards filamentous fungi and yeasts including Candida albicans and Crypt. neoformans. The sensitivity of filamentous fungi and yeasts was determined using inhibitor dilution assays in microtiter format. A standardized spore suspension for testing the filamentous fungi was prepared by inoculating sterile distilled water with spores such that 1.5-7.5×10^3 colony forming units were added per well. The microtiter wells were filled with 75 μl of yeast nitrogen base containing 1% Dextrose medium (YNB/D) containing compound. Fifty μl of inoculated YNB/D medium was then added to the wells.
(§16) The sensitivity of yeasts was determined by inoculating sterile distilled water with aliquots of a 4-hour yeast culture grown in Yeast Morphology (YM) media at 35° C. and diluting in YNB/D to yield a final concentration of 1.5-7.5×10^3 colony forming units/well. Seventy-five μl of inoculated media was added per well. To test the sensitivity of yeast, compound was solubilized in 10 percent aqueous DMSO at 2.56 mg/ml. The compound was diluted serially in YNB/D from 128 to 0.06 μg/ml. The wells were filled with 75 μl of drug containing media. […] Representative of the antifungal activity are the minimum inhibitory concentration and minimum fungicidal concentration data shown below in Table II: […]

Cryptococcus neoformans = assay: Microdilution Broth Assay (MIC/MFC); assay type: cell-based; settings: for MIC: 35° C., read-out: MIC (minimum inhibitory concentration)
Procedure: as §15, §16

Candida albicans [6] = assay: Microdilution Broth Assay (MIC/MFC); assay type: cell-based
Procedure: as §15, §16

Saccharomyces cerevisiae [7] = assay: Microdilution Broth Assay (MIC/MFC); assay type: cell-based
Procedure: as §15, §16

Candida tropicalis = assay: Microdilution Broth Assay (MIC/MFC); assay type: cell-based
Procedure: as §15, §16

Candida parapsilosis = assay: Microdilution Broth Assay (MIC/MFC); assay type: cell-based; settings: Lodderomyces parapsilosis; strain MY 1010; read-out: MFC (minimum fungicidal concentration)
Procedure: as §15, §16

Bacillus subtilis = assay: FISP disc diffusion assay, zone of inhibition; assay type: cell-based; settings: CH2Cl2, 250 μg/ml, agar diffusion
Procedure: as §1
The bacteria employed in the assay are Streptomyces sp., Acholeplasma laidlawii and Bacillus subtilis.
as §3
Seeded agar for Bacillus subtilis are prepared from a commercially available spore suspension which is diluted directly into molten agar (45° C.) to obtain a final concentration of 0.1 percent.
as §6, §7, §12

With `CC(/C=C/C=C(\C)C(O)C(C)C(=O)O[C@H]1C[C@H](C)C=C2C=C[C@@]3(C)O[C@@H](O)CC(=O)[C@]3(C)[C@H]21)=C\C=C\C(=O)O` (some centres unmarked) [Compound A] the “Zone quality (qualifier)” value (Phoma sp.) was “S”, the “Zone quality (qualifier)” value (Ceratocystis ulmi) was “V” and the “Zone quality (qualifier)” value (Cephalosporium sp.) was “F”. For the same compound, the “Zone quality (qualifier)” value (Torulospora hansenii) was “H”, the zone of inhibition at 250 µg/mL (Aspergillus niger) was 0 mm and the zone of inhibition at 250 µg/mL (Candida albicans [1]) was 0 mm. The zone of inhibition at 250 µg/mL (Saccharomyces cerevisiae [2]) was 0 mm, the zone of inhibition at 250 µg/mL (Candida guilliermondii [3]) was 0 mm and the zone of inhibition at 250 µg/mL (Torulopsis glabrata) was 0 mm. The light sensitivity [4] was “light sensitive”, the stability ([4]; isolated and worked with in the absence of light) was “stable” and the MIC (Candida guilliermondii [5]; 24 to 48 hours, 35° C., read-out: MIC (minimum inhibitory concentration)) was greater than 128 µg/mL. For the same compound, the MFC (Candida guilliermondii [5]; read-out: MFC (minimum fungicidal concentration)) was greater than 128 µg/mL, the MFC (Cryptococcus neoformans; strain MY 1051, read-out: MFC (minimum fungicidal concentration)) was 32 µg/mL (≈ 59.2 µM) and the MIC (Cryptococcus neoformans; strain MY 1146, 24 to 48 hours) was 128 µg/mL (≈ 237 µM). For the same compound, the MFC (Cryptococcus neoformans; strain MY 1146, read-out: MFC (minimum fungicidal concentration)) was 64 µg/mL (≈ 118 µM), the MIC (Cryptococcus neoformans; strain MY 2061, 24 to 48 hours) was 128 µg/mL (≈ 237 µM) and the MFC (Cryptococcus neoformans; strain MY 2061, read-out: MFC (minimum fungicidal concentration)) was 64 µg/mL (≈ 118 µM). For the same compound, the MIC (Candida albicans [6]; Candida albicans, strain MY 1055, 24 to 48 hours, 35° C., read-out: MIC (minimum inhibitory concentration)) was no more than 0.06 µg/mL, the MFC (Candida albicans [6]; Candida albicans, strain MY 1055, read-out: MFC (minimum fungicidal concentration)) was no more than 0.06 µg/mL and the “MFC (minimum fungicidal concentration)” value (Candida albicans [6]; strain MY 1028) was no more than 0.06 µg/mL. For the same compound, the “MIC (minimum inhibitory concentration)” value (Candida albicans [6]; strain MY 1028, 24 to 48 hours, 35° C.) was no more than 0.06 µg/mL, the MIC (Saccharomyces cerevisiae [7]; strain MY 1976, 24 to 48 hours, 35° C., read-out: MIC (minimum inhibitory concentration)) was greater than 128 µg/mL and the MFC (Saccharomyces cerevisiae [7]; strain MY 1976, read-out: MFC (minimum fungicidal concentration)) was greater than 128 µg/mL. It also gave an MIC (Candida tropicalis; strain MY 1012, 24 to 48 hours, 35° C., read-out: MIC (minimum inhibitory concentration)) of no more than 0.06 µg/mL, an MFC (Candida tropicalis; strain MY 1012, read-out: MFC (minimum fungicidal concentration)) of 0.5 µg/mL (≈ 0.925 µM) and an MFC (Candida parapsilosis) of 0.25 µg/mL (≈ 0.462 µM). For the same compound, the zone of inhibition at 250 µg/mL (Bacillus subtilis; Bacillus subtilis, 24 h, KCl (disc impregnated with 4M potassium chloride), read-out: Zone: diameter of the zone of inhibition of growth) was 0 mm and the “Zone: diameter of the zone of inhibition of growth” value (Bacillus subtilis) was 0 mm.
